Measured values from US8883782B2, “Spiro-tetracyclic ring compounds as beta-secretase modulators and methods of use” (Amgen Inc., priority 2010, dated 2014).

Each compound was assayed against Beta Secretase enzyme (BACE) (Homo sapiens, UniProt P56817) (assay: In vitro enzymatic BACE FRET (fluorescence resonance energy transfer) assay). Conditions: BACE 1 FRET assay (uM).
Sequence of Beta Secretase enzyme (BACE) (P56817 46-501, species assumed): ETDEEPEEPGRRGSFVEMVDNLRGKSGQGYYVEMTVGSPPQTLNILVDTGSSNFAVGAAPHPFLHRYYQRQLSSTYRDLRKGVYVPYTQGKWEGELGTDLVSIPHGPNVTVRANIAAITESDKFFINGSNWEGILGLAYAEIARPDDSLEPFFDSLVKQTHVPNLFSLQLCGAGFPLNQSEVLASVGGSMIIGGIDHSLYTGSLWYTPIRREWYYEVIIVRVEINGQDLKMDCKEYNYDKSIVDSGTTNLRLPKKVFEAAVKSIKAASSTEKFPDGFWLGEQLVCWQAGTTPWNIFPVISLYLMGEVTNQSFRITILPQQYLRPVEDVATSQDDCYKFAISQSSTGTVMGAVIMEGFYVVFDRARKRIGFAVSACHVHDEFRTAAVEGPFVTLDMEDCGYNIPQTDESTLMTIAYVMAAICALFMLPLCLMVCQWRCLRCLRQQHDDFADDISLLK
Type: biochemical
Description: In Vitro Enzymatic Bace Fret (Fluorescence Resonance Energy Transfer) Assay (Enzyme Assay Data in the Example Table I)
The assay buffer used in this screen is 0.05 M acetate, pH 4.2, 10% DMSO final, 100 uM genapol (which is a nonionic detergent, below its Critical Micelle Concentration). […] This assay is effectively started by the addition of FRET substrate (50 nM) and the combination is incubated for one hour. The FRET assay is terminated with by addition of Tris buffer, which raises the pH to neutrality, and the fluorescence is determined. The FRET substrate is a peptide with commercially available fluorophore and quencher, on opposite sides of the BACE cleavage site.
Work on `NC1=N[C@]2(CO1)c1cc(C3=CCOCC3)ccc1Oc1ccc(-c3cccnc3F)cc12` [Example 136, (R)-2′-(3,6-dihydro-2H-pyran-4-yl)-7′-(2-fluoropyridin-3-yl)-5H-spiro[oxazole-4,9′-xanthen]-2-amine 2,2,2-trifluoroacetate] yielded an IC50 of 0.0026 µM.

Same assay, conditions: average IC50, enzyme assay; read-out: BACE 1 FRET assay
`NC1=N[C@@]2(CS1)c1cc(Br)ccc1Oc1c2cc(Cl)nc1F` [Example 597, (5S)-7-bromo-3-chloro-1-fluorospiro[chromeno[2,3-c]pyridine-5,4′-[1,3]thiazol]-2′-amine] was tested, and the IC50 was 4.5 µM. In the case of `NC1=N[C@@]2(CO1)c1cc(-c3c(F)ccnc3F)ccc1Oc1cnc(-c3ccnc(F)c3)cc12` [Example 397, (5S)-7-(2,4-difluoro-3-pyridinyl)-3-(2-fluoro-4-pyridinyl)spiro[chromeno[2,3-c]pyridine-5,4′-[1,3]oxazol]-2′-amine], the IC50 is reported as 0.002 µM. `Cc1ncc(-c2cc3c(cn2)Oc2ccc(-c4cccnc4F)cc2[C@@]32COC(N)=N2)cn1` [Example 546, (5S)-7-(2-fluoro-3-pyridinyl)-3-(2-methyl-5-pyrimidinyl)spiro[chromeno[2,3-c]pyridine-5,4′-[1,3]oxazol]-2′-amine] was tested, and the IC50 was 0.0103 µM. Compound `CC1(C#Cc2cnc3c(c2)[C@]2(CSC(N)=N2)c2cc(-c4cccnc4F)ccc2O3)COC1` [Example 586, (5S)-7-(2-fluoro-3-pyridinyl)-3-((3-methyl-3-oxetanyl)ethynyl)spiro[chromeno[2,3-b]pyridine-5,4′-[1,3]thiazol]-2′-amine] has an IC50 of 0.002 µM. `NC1=N[C@@]2(CO1)c1cc(-c3ccnc(F)c3)ccc1Oc1cnc(-c3ccnc(F)c3)cc12` [Example 548, (5S)-3,7-bis(2-fluoro-4-pyridinyl)spiro[chromeno[2,3-c]pyridine-5,4′-[1,3]oxazol]-2′-amine] gave an IC50 of 0.055 µM. Work on `NC1=N[C@@]2(CO1)c1cc(-c3cccnc3F)ccc1Oc1c(F)cc([C@@H]3CCOC3)cc12` [Example 300, (4S)-4′-fluoro-7′-(2-fluoro-3-pyridinyl)-2′-((3S)-tetrahydro-3-furanyl)spiro[1,3-oxazole-4,9′-xanthen]-2-amine] yielded an IC50 of 0.0023 µM. For `NC1=N[C@@]2(CO1)c1cc(-c3cccnc3)ccc1Oc1c2cc(-c2ccnc(F)c2)nc1F` [Example 491, (5S)-1-fluoro-3-(2-fluoro-4-pyridinyl)-7-(3-pyridinyl)spiro[chromeno[2,3-c]pyridine-5,4′-[1,3]oxazol]-2′-amine], the IC50 was 0.002 µM. `NC1=N[C@@]2(CO1)c1cc(-c3c(F)ccnc3F)ccc1Oc1cnc(Cl)cc12` [Example 399, (5S)-3-chloro-7-(2,4-difluoro-3-pyridinyl)spiro[chromeno[2,3-c]pyridine-5,4′-[1,3]oxazol]-2′-amine] showed an IC50 of 0.0599 µM. `NC1=N[C@@]2(CO1)c1cc(-c3cccnc3F)ccc1Oc1cnc(-c3cncs3)cc12` [Example 576, (5S)-7-(2-fluoro-3-pyridinyl)-3-(1,3-thiazol-5-yl)spiro[chromeno[2,3-c]pyridine-5,4′-[1,3]oxazol]-2′-amine] was tested, and the IC50 was 0.0046 µM. Compound `NC1=N[C@@]2(CO1)c1cc(-c3cccnc3)c(F)cc1Oc1c(F)cc(C3=CCCOC3)cc12` [Example 298, (4S)-7′-(5,6-dihydro-2H-pyran-3-yl)-3′,5′-difluoro-2′-(3-pyridinyl)spiro[1,3-oxazole-4,9′-xanthen]-2-amine] has an IC50 of 0.0968 µM. With `NC1=N[C@@]2(CO1)c1cc(-c3c(F)ccnc3F)ccc1Oc1cnc(-c3ccncc3)cc12` [Example 398, (5S)-7-(2,4-difluoro-3-pyridinyl)-3-(4-pyridinyl)spiro[chromeno[2,3-c]pyridine-5,4′-[1,3]oxazol]-2′-amine] the IC50 was 0.002 µM. “(4S)-4′-fluoro-7′-(2-fluoro-3-pyridinyl)-2′-(6-methyl-3-pyridinyl)spiro[1,3-oxazole-4,9′-xanthen]-2-amine [Example 223]” gave an IC50 of 0.002 µM. In the case of `NC1=N[C@@]2(CO1)c1cc(-c3cccnc3F)ccc1Oc1c(F)cc([C@H]3CCOC3)cc12` [Example 299, (4S)-4′-fluoro-7′-(2-fluoro-3-pyridinyl)-2′-((3R)-tetrahydro-3-furanyl)spiro[1,3-oxazole-4,9′-xanthen]-2-amine], the IC50 is reported as 0.0028 µM.
